What was measured:
PC3-DAB2IP KD cells = assay: In vivo metastasis assay, orthotopic PC3-DAB2IP KD xenograft
Method: PC-3 cells (from ATCC) engineered to express both GFP and DAB2IP shRNA were characterized previously. Cells were suspended in serum free medium and 2,000 cells injected directly into the prostate glands of 7 week old NCr athymic nu/nu mice. Three days after injection, mice were divided into two groups, one receiving vehicle alone (5% DMSO/10% Cremophor/PBS) and another 50 mg/kg doxazosin via intraperitoneal injection daily for 10 days. Mice were sacrificed 14 days later and intact primary tumors were imaged under a UV light box with a Digital camera. Lungs were dissected into separate lobes and GFP-expressing metastases were imaged using an inverted fluorescent microscope (Leica). Metastases were enumerated in the two largest lung lobes and placed into size categories based upon their diameters, measured in number of cells (1-10 cells). Total metastatic burden was calculated in each mouse using the following equation: [burden=Σ (# of foci×focus diameter)].
We took advantage of this newly established model system to test how doxazosin can affect metastasis of prostate cancer. To this end, PC3-DAB2IP KD cells were injected orthotopically into the prostate glands of nude mice. Three days later, recipient mice were subject to systemic treatment by daily i.p. injection of either vehicle control, or 50 mg/kg doxazosin for 10 days. Since these cells also expressed green fluorescent protein (GFP), freshly dissected primary tumors could be readily visualized in a GFP light box (FIG. 7A top panels), and distal metastases to lungs and lymph nodes could be observed and quantified under a fluorescent microscope (FIG. 7A lower panels).
Next, we determined whether doxazosin treatment might impact overall survival. Nude mice orthotopically implanted with the PC3-DAP2IP KD cells were treated for 10 days with either doxazosin, or vehicle control and monitored for survival.

EphA3 = molecular target: T1, EphA3 (Homo sapiens, UniProt P29320); assay: EphA3 activation in HEK 293 cells overexpressing EphA3; format: cell-based; details: HEK 293 overexpressing EphA3, compared to EphA2 and EphA4
T1 construct: expressed in transfected cells; host or cells: HEK 293
T1 sequence (P29320 21-983): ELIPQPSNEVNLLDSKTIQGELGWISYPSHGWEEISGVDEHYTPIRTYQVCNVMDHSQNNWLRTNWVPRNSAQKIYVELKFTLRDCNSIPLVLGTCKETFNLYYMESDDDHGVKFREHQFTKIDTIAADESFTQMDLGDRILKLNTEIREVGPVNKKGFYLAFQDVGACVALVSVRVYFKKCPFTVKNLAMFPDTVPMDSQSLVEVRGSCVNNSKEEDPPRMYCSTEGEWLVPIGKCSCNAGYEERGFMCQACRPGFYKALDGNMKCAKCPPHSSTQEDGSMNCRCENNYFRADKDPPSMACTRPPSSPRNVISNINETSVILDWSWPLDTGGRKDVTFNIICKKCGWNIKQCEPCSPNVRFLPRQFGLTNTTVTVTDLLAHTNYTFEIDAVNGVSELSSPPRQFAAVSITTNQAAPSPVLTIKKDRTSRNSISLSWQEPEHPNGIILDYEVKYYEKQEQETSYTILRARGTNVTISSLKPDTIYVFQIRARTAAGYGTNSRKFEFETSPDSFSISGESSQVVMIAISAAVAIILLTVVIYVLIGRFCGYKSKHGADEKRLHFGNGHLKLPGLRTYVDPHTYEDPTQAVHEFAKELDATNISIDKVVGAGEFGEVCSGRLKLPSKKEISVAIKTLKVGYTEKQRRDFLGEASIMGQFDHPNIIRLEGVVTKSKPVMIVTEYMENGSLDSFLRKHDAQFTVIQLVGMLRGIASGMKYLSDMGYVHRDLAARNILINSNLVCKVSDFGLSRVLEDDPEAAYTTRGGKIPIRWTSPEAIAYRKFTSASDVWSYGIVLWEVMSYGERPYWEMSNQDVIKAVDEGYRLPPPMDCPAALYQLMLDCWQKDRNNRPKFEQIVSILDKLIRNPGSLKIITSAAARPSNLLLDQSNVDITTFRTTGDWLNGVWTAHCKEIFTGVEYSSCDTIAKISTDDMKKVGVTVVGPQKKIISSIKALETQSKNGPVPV
Method: Cells were plated in 24-well dishes at a density of 100,000 cells/well and grown for 24 hours prior to stimulation with appropriate compounds and ephrins for the given amounts of time. Compounds were prepared in DMSO at 500 times the final concentrations and 0.2% DMSO was used as vehicle control. Following treatment, cells were lysed directly in SDS Gel Loading Buffer and immunoblotted as described previously. […] For immunoprecipitation, 300,000 cells/well were plated in 6-well dishes and lysed in modified RIPA Buffer (20 mM Tris-HCl pH 7.4, 20 mM NaF, 150 mM NaCl, 10% glycerol, 0.1% SDS, 0.5% DCA, 2 mM EDTA, 1% Triton X-100) following treatment. Either 10 μg of ephrin-A1-Fc, or 4 mg of EphA2 mouse monoclonal antibody (Clone D7, Millipore) were used, and mouse IgG was used as a negative control for EphA2 IP. […] For this purpose, HEK 293 cell lines overexpressing EphA1, EphA2, EphA3, EphA4, and EphB3 kinases were utilized.

[1] = 50 mg/kg i.p. daily for 10 days, versus vehicle

Compound: COc1cc2nc(N3CCN(C(=O)C4COc5ccccc5O4)CC3)nc(N)c2cc1OC (stereo not drawn) [Doxazosin, 2-[4-(2,3-Dihydro-1,4-benzodioxine-2-carbonyl)piperazin-1-yl]-6,7-dimethoxyquinazolin-4-amine]
- side effects (PC3-DAB2IP KD cells; 50 mg/kg i.p. daily for 10 days): no notable side effects
- body weight (PC3-DAB2IP KD cells; [1]): no changes in body weight
- number of lung metastases (PC3-DAB2IP KD cells; [1]): significant reduction in the number of lung metastases
- primary tumor sizes (PC3-DAB2IP KD cells; [1]): difference was not statistically significant
- sizes of lung metastases (PC3-DAB2IP KD cells; [1]): significantly smaller
- total metastatic burden (PC3-DAB2IP KD cells; [1]): even more significantly reduced
- tumor cell dissemination to local lymph nodes (PC3-DAB2IP KD cells; [1]): reduced, but not to a significant extent
- overall survival (PC3-DAB2IP KD cells; 27 days after cell implantation, treated 10 days, vehicle 30%): 70%
- EphA3 activation (EphA3): activation of EphA3 was weak
